Experimental findings from patent US5480987A, “2-substituted alkyl-3-carboxy carbapenems as antibiotics and a method of producing them” (American Cyanamid Company, priority 1994, dated 1996) are described below.

The structures appear in SMILES notation. Where a name gives a salt, the structure may show the parent alone.

Assay type in all cases: cell-based
In one experiment the test system is E. coli ATCC 25922. The experiment in a line: In vitro antibacterial activity, MIC by tube dilution, Ec(1). The note with it: Nutrient Broth; for MIC: Escherichia coli, ATCC25922, overnight incubation at 37° C., read-out: Minimum Inhibitory Concentration (MIC).
The subject of another experiment is E. coli ATCC 35218. The experiment in a line: In vitro antibacterial activity, MIC by tube dilution, Ec(2). Conditions: Nutrient Broth; for MIC: Escherichia coli, ATCC35218, overnight incubation at 37° C., read-out: Minimum Inhibitory Concentration (MIC).
The next experiment relates to Staph. aureus ATCC 29213. The experiment in a line: In vitro antibacterial activity, MIC by tube dilution, SA(1). The note with it: Nutrient Broth; for MIC: Staphylococcus aureus, ATCC29213, overnight incubation at 37° C., read-out: Minimum Inhibitory Concentration (MIC).
Another experiment deals with Staph. aureus ACCC 25923. The experiment in a line: In vitro antibacterial activity, MIC by tube dilution, SA(2). Conditions: Nutrient Broth; for MIC: Staphylococcus aureus, ACCC25923, overnight incubation at 37° C., read-out: Minimum Inhibitory Concentration (MIC).
For another experiment, the system named is Ser. marceslens. The experiment in a line: In vitro antibacterial activity, MIC by tube dilution, SM. The note with it: overnight incubation at 37° C., Nutrient Broth; for MIC: read-out: Minimum Inhibitory Concentration (MIC).
The test system of a further experiment is Ent. cloacae. The experiment in a line: In vitro antibacterial activity, MIC by tube dilution, Ent C. Conditions: overnight incubation at 37° C., Nutrient Broth; for MIC: Enterobacter cloacae, read-out: Minimum Inhibitory Concentration (MIC).
A further experiment has as its system E. Coli-OXA-2. The experiment in a line: In vitro antibacterial activity of carbapenem, piperacillin and 1:1 combination. The note with it: single agent. The protocol:
(§1) A sample of the carbapenems prepared in this invention is tested in combination with the penicillin Piperacillin. The enhanced combined synergistic antibacterial activity is representative of the anti β-lactamase properties of the carbapenems in this invention (Table 2).

In a further experiment the test system is E. Coli-OXA-4. The experiment is described as above. The note with it: single agent. The protocol:
as §1

A further experiment deals with E. Coli-OXA-5. The experiment is described as above. Conditions: single agent. How it is done:
as §1

For a further experiment, the system named is E. Coli-OXA-7. The description is as above. Conditions: single agent. The protocol: as §1
Another experiment concerns Pseudomonas OXA-6. The experiment is described as above. The note with it: single agent. How it is done:
as §1

As to `CC(O)C1C(=O)N2C(C(=O)O)=C(CS(=O)(=O)c3cccs3)CC12` (stereo not drawn) [Example 10, [5R-[5Alpha,6alpha(R*)]]-6-(1-hydroxyethyl)-3-[(2-thienylsulfonyl)methyl]-7-oxo-1-azabicyclo[3.2.0]-hept-2-ene-2-carboxylic acid, monosodium salt], the MIC with E. coli ATCC 25922 came to 1 µg/mL; in the experiment on E. coli ATCC 35218, 1 µg/mL; in the experiment on Staph. aureus ATCC 29213, 0.06 µg/mL; in the experiment with Staph. aureus ACCC 25923, 0.06 µg/mL; in the experiment with Ser. marceslens, 32 µg/mL; with Ent. cloacae it was 32 µg/mL.

Regarding `COC(=O)C(Cl)=C1CC2C(C(C)O)C(=O)N2C1C(=O)[O-].[Na+]` (stereo not drawn) [Example 44, (2R-[2Alpha,3(R* or S*),5alpha,6alpha(R*)]]-3-(1-chloro-2-methoxy-2-oxoethylidene)-6-(1-hydroxyethyl)-7-oxo-1-azabicyclo[3.2.0]heptane-2-carboxylic acid, monosodium salt], the “Minimum Inhibitory Concentration (MIC)” value worked out at 128 µg/mL in the experiment on E. coli ATCC 25922 (overnight incubation at 37° C.); 128 µg/mL with E. coli ATCC 35218 (overnight incubation at 37° C.); 64 µg/mL with Staph. aureus ATCC 29213 (overnight incubation at 37° C.); 64 µg/mL with Staph. aureus ACCC 25923 (overnight incubation at 37° C.); 128 µg/mL with Ser. marceslens; 128 µg/mL with Ent. cloacae.

Turning to `CC(O)C1C(=O)N2C(C(=O)O)=C(CS(=O)(=O)c3ccc(F)cc3)CC12` (stereo not drawn) [Example 48, [5R-[5Alpha,6alpha(R*)]]3-[[fluorophenyl)sulfonyl]methyl]-6-(1-hydroxyethyl)-7-oxo-1-azabicyclo[3.2.0]hept-2-ene-2-carboxylic acid, monosodium salt], the MIC turned out to be 8 µg/mL in the experiment with E. coli ATCC 25922; 8 µg/mL in the experiment on E. coli ATCC 35218; 0.06 µg/mL in the experiment with Staph. aureus ATCC 29213; 0.06 µg/mL with Staph. aureus ACCC 25923; 32 µg/mL in the experiment on Ser. marceslens; 64 µg/mL in the experiment with Ent. cloacae. Moreover, the M.I.C. came out at 32 µg/mL in the experiment on E. Coli-OXA-2; 32 µg/mL in the experiment with E. Coli-OXA-4; 32 µg/mL with E. Coli-OXA-5; 16 µg/mL in the experiment on E. Coli-OXA-7; 128 µg/mL with Pseudomonas OXA-6.

`CCN1CCN(C(=O)N[C@@H](C(=O)N[C@@H]2C(=O)N3[C@@H]2SC(C)(C)[C@@H]3C(=O)O)c2ccccc2)C(=O)C1=O` [Piperacillin, reference compound]: the M.I.C. in the experiment with E. Coli-OXA-2 turned out to be 16 µg/mL; with E. Coli-OXA-4 it was 8 µg/mL; in the experiment on E. Coli-OXA-5, 2 µg/mL; with E. Coli-OXA-7, 128 µg/mL; with Pseudomonas OXA-6, 32 µg/mL.
